Laboratory results published in paper PMC6001238, “Iterative Chemical Engineering of Vancomycin Leads to Novel Vancomycin Analogs With a High in Vitro Therapeutic Index” (Frontiers in Microbiology, 2018).
≈ marks a conversion by molar mass, not a printed value. Like-named read-outs stand apart in the source and are kept apart here.

Legend:
B. subtilis PSB3 = assay: MIC, broth microdilution, B. subtilis PSB3; format: cell-based, Bacillus subtilis; settings: for MICvanc/MICi: ratio of MIC of vancomycin and MIC of analogue
Protocol: (§1) The minimum inhibitory concentration (MIC) was determined using the broth microdilution method according to the antimicrobial susceptibility testing standards of the clinical and laboratory standards institute ([Clinical and Laboratory Standards Institute [CLSI], 2012]). Ultrapure water and non-inoculated broth were used as controls. In one case, a final concentration of 10 μM vancomycin was included with the vancomycin analog or control antibiotic.

E. coli XL-1 blue MRF' = assay: MIC, broth microdilution, E. coli XL-1 blue MRF'; format: cell-based, Escherichia coli; settings: E. coli XL-1 blue MRF'; for MICvanc/MICi: ratio of MIC of vancomycin and MIC of analogue
Protocol: as §1

E. faecalis VSE 1 = assay: MIC, broth microdilution, vancomycin-sensitive E. faecalis (VSE 1); format: cell-based, Enterococcus faecalis; settings: for MICvanc/MICi / MIC-fold improvement vs. vancomycin: ratio of MIC of vancomycin and MIC of analogue; for MIC: read-out: MIC; for MIC-fold improvement vs. vancomycin: VSE 1
Summary of the method: (§2)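 Assayed by broth microdilution under CLSI antimicrobial testing rules. One case paired the analog or control drug with vancomycin at a 10 μM final concentration; water and inoculum-free broth were controls.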

E. faecalis VRE 6 = assay: MIC, broth microdilution, vancomycin-resistant E. faecalis VRE 6 (VanA); format: cell-based, Enterococcus faecalis; settings: for MICvanc/MICi / MIC-fold improvement vs. vancomycin: ratio of MIC of vancomycin and MIC of analogue; for MIC: read-out: MIC; for MIC-fold improvement vs. vancomycin: VRE 6
Summary of the method: as §2

E. faecalis VRE 53 = assay: MIC, broth microdilution, vancomycin-resistant E. faecalis VRE 53 (VanA); format: cell-based, Enterococcus faecalis; settings: for MICvanc/MICi / MIC-fold improvement vs. vancomycin: ratio of MIC of vancomycin and MIC of analogue; for MIC: read-out: MIC; for MIC-fold improvement vs. vancomycin: VRE 53
Summary of the method: as §2

E. faecalis VRE 29 = assay: MIC, broth microdilution, vancomycin-resistant E. faecalis VRE 29 (VanA); format: cell-based, Enterococcus faecalis; settings: for MIC: Enterococcus faecalis VRE 29 (vancomycin-resistant), read-out: MIC; for MIC-fold improvement vs. vancomycin: VRE 29, ratio of MIC of vancomycin and MIC of analogue
Summary of the method: as §2

E. faecalis VRE 37 = assay: MIC, broth microdilution, vancomycin-resistant E. faecalis VRE 37 (VanA); format: cell-based, Enterococcus faecalis; settings: Enterococcus faecalis VRE 37 (vancomycin-resistant); read-out: MIC
Summary of the method: as §2

[1] = system: Murine leukemia (L1210) cells; assay: Cytostatic activity, L1210 cell proliferation; format: cell-based; settings: mean ± SD of three experiments; highest concentration tested 250 µM; 2 days; read-out: Toxicity (IC50) L1210
Summary of the method: (§3)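 Readout: Coulter cell number after drug exposure at 37°C. Durations differ by line (L1210 2 days; CEM 3 days; HeLa 4 days). Stock suspension 300,000–500,000 cells/mL, diluted by mixing with compound. Endpoint: IC50 vs negative control.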

[2] = system: human T-lymphocyte (CEM) cells; assay: Cytostatic activity, CEM cell proliferation; format: cell-based; settings: mean ± SD of three experiments; highest concentration tested 250 µM; 3 days; read-out: Toxicity (IC50) CEM
Summary of the method: as §3

[3] = system: human cervix carcinoma (HeLa) cells; assay: Cytostatic activity, HeLa cell proliferation; format: cell-based; settings: mean ± SD of three experiments; highest concentration tested 250 µM; 4 days; read-out: Toxicity (IC50) HeLa
Summary of the method: as §3

[4] = system: L1210, CEM and HeLa cell lines; assay: Cytostatic activity, average or summary over L1210, CEM and HeLa; format: cell-based; settings: average of L1210, CEM and HeLa; read-out: Toxicity (IC50) Average
Summary of the method: as §3

[5] = system: S. aureus VSSA (ATCC 6538); assay: MIC, broth microdilution, vancomycin-sensitive S. aureus (VSSA/MSSA, ATCC 6538); format: cell-based, Staphylococcus aureus; settings: for MIC: Staphylococcus aureus VSSA, read-out: MIC; for MIC-fold improvement vs. vancomycin: VSSA, ratio of MIC of vancomycin and MIC of analogue
Summary of the method: as §2

S. aureus VISA/HIP5827 = assay: MIC, broth microdilution, vancomycin-intermediate S. aureus VISA HIP5827; format: cell-based, Staphylococcus aureus; settings: for MIC: Staphylococcus aureus VISA/HIP5827, read-out: MIC; for MIC-fold improvement vs. vancomycin: VISA/HIP5827, ratio of MIC of vancomycin and MIC of analogue
Summary of the method: as §2

S. aureus VRSA = assay: MIC, broth microdilution, vancomycin-resistant S. aureus (VRSA); format: cell-based, Staphylococcus aureus; settings: for MIC: Staphylococcus aureus VRSA, read-out: MIC; for MIC-fold improvement vs. vancomycin: VRSA, ratio of MIC of vancomycin and MIC of analogue
Summary of the method: as §2

MRSA KS2 = assay: MIC, broth microdilution, MRSA KS2; format: cell-based, Staphylococcus aureus; settings: for MIC-fold improvement vs. vancomycin: MRSA KS2, ratio of MIC of vancomycin and MIC of analogue; for MIC: Staphylococcus aureus MRSA KS2, read-out: MIC
Summary of the method: as §2

MRSA KS6 = assay: MIC, broth microdilution, MRSA KS6; format: cell-based, Staphylococcus aureus; settings: for MIC-fold improvement vs. vancomycin: MRSA KS6, ratio of MIC of vancomycin and MIC of analogue; for MIC: Staphylococcus aureus MRSA KS6, read-out: MIC
Summary of the method: as §2

MRSA KS89 = assay: MIC, broth microdilution, MRSA KS89; format: cell-based, Staphylococcus aureus; settings: for MIC-fold improvement vs. vancomycin: MRSA KS8, ratio of MIC of vancomycin and MIC of analogue; for MIC: Staphylococcus aureus MRSA KS8, read-out: MIC
Summary of the method: as §2

MRSA KS1 = assay: MIC, broth microdilution, MRSA KS1; format: cell-based, Staphylococcus aureus; settings: for MIC-fold improvement vs. vancomycin: MRSA KS1, ratio of MIC of vancomycin and MIC of analogue; for MIC: Staphylococcus aureus MRSA KS1, read-out: MIC
Summary of the method: as §2

[6] = Enterococcus faecalis VSE 1 (vancomycin-sensitive)
[7] = Enterococcus faecalis VRE 6 (vancomycin-resistant)
[8] = Enterococcus faecalis VRE 53 (vancomycin-resistant)

SMILES	MIC (B. subtilis PSB3)	MICvanc/MICi (B. subtilis PSB3)	MIC (E. coli XL-1 blue MRF')	MICvanc/MICi (E. coli XL-1 blue MRF')	MICvanc/MICi (E. faecalis VSE 1; E. faecalis VSE 1)	MIC (E. faecalis VSE 1; E. faecalis VSE 1)	MIC (E. faecalis VSE 1; [6])	MIC-fold improvement vs. vancomycin (E. faecalis VSE 1)	MICvanc/MICi (E. faecalis VRE 6; E. faecalis VRE 6)	MIC (E. faecalis VRE 6; E. faecalis VRE 6)	MIC (E. faecalis VRE 6; [7])	MIC-fold improvement vs. vancomycin (E. faecalis VRE 6)	MICvanc/MICi (E. faecalis VRE 53; E. faecalis VRE 53)	MIC (E. faecalis VRE 53; E. faecalis VRE 53)	MIC (E. faecalis VRE 53; [8])	MIC-fold improvement vs. vancomycin (E. faecalis VRE 53)	MIC (E. faecalis VRE 29)	MIC-fold improvement vs. vancomycin (E. faecalis VRE 29)	MIC (E. faecalis VRE 37)	IC50 [1]	further results
C#Cc1ccc(-c2ccc(C(=O)NCCCNC(=O)[C@H]3NC(=O)[C@H]4NC(=O)[C@H](NC(=O)[C@@H]5NC(=O)[C@H](CC(N)=O)NC(=O)[C@H](NC(=O)[C@@H](CC(C)C)NC)[C@H](O)c6ccc(c(Cl)c6)Oc6cc5cc(c6O[C@@H]5O[C@H](CO)[C@@H](O)[C@H](O)[C@H]5O[C@H]5C[C@](C)(N)[C@H](O)[C@H](C)O5)Oc5ccc(cc5Cl)[C@H]4O)c4ccc(O)c(c4)-c4c(O)cc(O)cc43)cc2)cc1 [Vanc-S]	0.20 µM (≈ 0.342 µg/mL)	2	50 µM (≈ 85.5 µg/mL)	2	64	0.03 µM (≈ 0.0513 µg/mL)	0.03 µM (≈ 0.0513 µg/mL)	64	256	0.78 µM (≈ 1.33 µg/mL)	0.78 µM (≈ 1.33 µg/mL)	256	128	3.13 µM (≈ 5.35 µg/mL)	3.13 µM (≈ 5.35 µg/mL)	128	6.25 µM (≈ 10.7 µg/mL)	64	25 µM (≈ 42.7 µg/mL)	10 ± 4 µM	IC50 [2]: 5.6 ± 1.1 µM; IC50 [3]: 70 ± 8 µM; IC50 [4]: 29 µM; MIC [5]: 0.10 µM (≈ 0.171 µg/mL); MIC-fold improvement vs. vancomycin [5]: 8; MIC (S. aureus VISA/HIP5827): 0.39 µM (≈ 0.667 µg/mL); MIC-fold improvement vs. vancomycin (S. aureus VISA/HIP5827): 16; MIC (S. aureus VRSA): 0.78 µM (≈ 1.33 µg/mL); MIC-fold improvement vs. vancomycin (S. aureus VRSA): 128; MIC-fold improvement vs. vancomycin (MRSA KS2): 4; MIC (MRSA KS2): 0.20 µM (≈ 0.342 µg/mL); MIC-fold improvement vs. vancomycin (MRSA KS6): 2; MIC (MRSA KS6): 0.39 µM (≈ 0.667 µg/mL); MIC-fold improvement vs. vancomycin (MRSA KS89): 4; MIC (MRSA KS89): 0.20 µM (≈ 0.342 µg/mL); MIC-fold improvement vs. vancomycin (MRSA KS1): >8; MIC (MRSA KS1): <0.10 µM
C#Cc1ccc2cc(C(=O)NCCCNC(=O)[C@H]3NC(=O)[C@H]4NC(=O)[C@H](NC(=O)[C@@H]5NC(=O)[C@H](CC(N)=O)NC(=O)[C@H](NC(=O)[C@@H](CC(C)C)NC)[C@H](O)c6ccc(c(Cl)c6)Oc6cc5cc(c6O[C@@H]5O[C@H](CO)[C@@H](O)[C@H](O)[C@H]5O[C@H]5C[C@](C)(N)[C@H](O)[C@H](C)O5)Oc5ccc(cc5Cl)[C@H]4O)c4ccc(O)c(c4)-c4c(O)cc(O)cc43)ccc2c1 [Vanc-T]	0.39 µM (≈ 0.657 µg/mL)	1	25 µM (≈ 42.1 µg/mL)	4	32	0.05 µM (≈ 0.0842 µg/mL)	0.05 µM (≈ 0.0842 µg/mL)	32	64	3.13 µM (≈ 5.27 µg/mL)	3.13 µM (≈ 5.27 µg/mL)	64	128	3.13 µM (≈ 5.27 µg/mL)	3.13 µM (≈ 5.27 µg/mL)	128	12.5 µM (≈ 21 µg/mL)	32	25 µM (≈ 42.1 µg/mL)	77 ± 17 µM	IC50 [2]: 60 ± 10 µM; IC50 [3]: 75 ± 20 µM; IC50 [4]: 71 µM; MIC [5]: 0.10 µM (≈ 0.168 µg/mL); MIC-fold improvement vs. vancomycin [5]: 8; MIC (S. aureus VISA/HIP5827): 1.56 µM (≈ 2.63 µg/mL); MIC-fold improvement vs. vancomycin (S. aureus VISA/HIP5827): 4; MIC (S. aureus VRSA): 1.56 µM (≈ 2.63 µg/mL); MIC-fold improvement vs. vancomycin (S. aureus VRSA): 64; MIC-fold improvement vs. vancomycin (MRSA KS2): 4; MIC (MRSA KS2): 0.20 µM (≈ 0.337 µg/mL); MIC-fold improvement vs. vancomycin (MRSA KS6): 2; MIC (MRSA KS6): 0.39 µM (≈ 0.657 µg/mL); MIC-fold improvement vs. vancomycin (MRSA KS89): 4; MIC (MRSA KS89): 0.20 µM (≈ 0.337 µg/mL); MIC-fold improvement vs. vancomycin (MRSA KS1): 4; MIC (MRSA KS1): 0.20 µM (≈ 0.337 µg/mL)
